Assay results from patent US20220347260A1, “Combination of An Agonist Anti-PD-1 Antibody With a GnRH Agonist or Antagonist to Treat Cancer” (Debiopharm International SA, priority 2017, published 2022).

Assays:
[1] = Phase I study Debio 8200-IMM-101, Patient A: serum testosterone levels; format: in vivo, human; details: baseline Day 1 15.7 nmol/L, castrate range <1.735 nmol/L
Description: The study involves 3 to 12 treatment cycles (depending on individual responses) of 28 days each. Patients receive triptorelin embonate (pamoate) 3.75 mg one-month formulation i.m. on day 1 of each 28-day cycle and nivolumab (Opdivo®) at 3 mg/kg body weight i.v. (1-hour infusion) on days 1 and 15 of each cycle. On day 1 of each cycle, triptorelin is administered prior to nivolumab. In addition, patients take bicalutamide 50 mg p.o. once daily for 28 days throughout cycle 1 only, to counteract the initial testosterone “flare” induced by triptorelin.
On 12 Jun. 2018 the patient was enrolled in the protocol Debio 8200-IMM-101 and received the first injections of triptorelin -anti-androgen bicalutamide was added for 28 days- and anti-PD-1 molecule nivolumab.
As expected due to triptorelin treatment, the serum testosterone levels of the patient decreased from a baseline (Day 1) level of 15.7 nmol/L on 12 Jun. 2018 to a very low castrate level of 0.6 nmol/L four weeks later 10 Jul. 2018 (Day 29), and have remained in the castrate range (i.e. <1.735 nmol/L) until the last value available to date of 0.69 nmol/L on 29 Oct. 2018 (Day 141).

melanoma = melanoma patients in phase II or III trials; in some cases for more than ten years; cited from earlier work
[2] = system: melanoma metastasis in the pancreas; assay: Patient A: prior pembrolizumab treatment, tumor response by PET-CT; format: in vivo, human
Description: A person (at screening on 23 May 2018) […] had been operated on 26 Sep. 2016 for left lung lobectomy for melanoma metastasis of unknown origin. On 21 Aug. 2017, biopsy of PET-CT (Positron emission tomography—computed tomography) detected a new melanoma metastasis in the pancreas. From 27 Sep. 2017 until 13 Mar. 2018 (last administration at Cycle 9) they were treated with anti-PD-1 molecule pembrolizumab. On 12 Dec. […] However, on 30 Mar. […] On 23 May 2018, the size of this unique pancreatic metastasis was 34 mm on CT-scan.

Molecule: CC(C)C[C@H](NC(=O)[C@@H](Cc1c[nH]c2ccccc12)NC(=O)[C@H](Cc1ccc(O)cc1)NC(=O)[C@H](CO)NC(=O)[C@H](Cc1c[nH]c2ccccc12)NC(=O)[C@H](Cc1c[nH]cn1)NC(=O)[C@@H]1CCC(=O)N1)C(=O)N[C@@H](CCCNC(=N)N)C(=O)N1CCC[C@H]1C(=O)NCC(N)=O [triptorelin, pyroGlu-His-Trp-Ser-Tyr-D-Trp-Leu-Arg-Pro-Gly-NH2]
- serum testosterone level ([1]; Day 29 (10 Jul. 2018)): 0.6 nmol/L
- serum testosterone level ([1]; Day 141 (29 Oct. 2018)): 0.69 nmol/L

Molecule: Ipilimumab: fully human IgG1 CTLA-4-blocking monoclonal antibody from Bristol-Myers Squibb
- durable survival, patients (melanoma): about 20%

Molecule: pembrolizumab: humanized IgG4 monoclonal anti-PD-1 antibody from Merck
- tumor response ([2]; 12 Dec. 2017, pembrolizumab from 27 Sep. 2017 until 13 Mar. 2018): Partial Response (PR)
- tumor response ([2]; 30 Mar. 2018, PET-CT, after Cycle 9 of pembrolizumab): progression (PD)
